Values quoted from earlier work in PMC11054727 (Viruses, 2024).
pEC50: −log10 of the molar value. Read-outs that look alike come from different tables or passages of the source.

What was measured:
SARS-CoV-2 [1] = conditions: cited from earlier work
SARS-CoV-2 [2] = test system: SARS-CoV-2; set-up: method as in ref 23; conditions: Table S1, experimental antiviral activity; read-out: Observed EC50; cited from earlier work
hCoV-OC43 = test system: hCoV-OC43; set-up: method as in ref 2 = [2]; conditions: read-out: EC50 hCoV-OC43 infections; cited from earlier work
SARS-CoV-2 Spike = conditions: read-out: Spike-mediated fusion activity EC50; cited from earlier work
[3] = test system: Nsp5 Main protease (Mpro); conditions: cited from earlier work
SARS-CoV-2 [4] = conditions: cited from earlier work; remark: listed apart in the source
SARS-CoV-2 pseudovirus = test system: SARS-CoV-2 pseudovirus; set-up: method as in ref 48 = [48]; conditions: read-out: EC50 pseudovirus entry; cited from earlier work
[5] = experimental CPE data, read-out: EC50 CPE

CCOC(=O)c1c(CS(=O)(=O)c2ccc(Cl)cc2)n(C)c2cc(Br)c(O)c(CN(C)C)c12 [1b]
pEC50 (SARS-CoV-2 [1]; [5]): 4.53

COc1ccc(Nc2cc3nc4ccccc4n(-c4ccc(Cl)cc4)c-3cc2=N)cc1 [6d]
pEC50 (SARS-CoV-2 [2]): 3.81

COc1ccc(Nc2cc3nc4ccccc4n(-c4ccc(Cl)cc4)c-3cc2=N)c(OC)c1 [6e]
pEC50 (SARS-CoV-2 [2]): 4.79

Clc1ccc(Nc2cc3nc4ccccc4n(-c4ccc(Cl)cc4)c-3cc2=NC2CC2)cc1 [7a]
pEC50 (SARS-CoV-2 [2]): 3.85

CC(C)N=c1cc2n(-c3ccc(Cl)cc3)c3ccccc3nc-2cc1Nc1ccccc1 [7c]
pEC50 (SARS-CoV-2 [2]): 4.39

COc1ccc(Nc2cc3nc4ccccc4n(-c4ccc(Cl)cc4)c-3cc2=NC(C)C)cc1 [7g]
pEC50 (SARS-CoV-2 [2]): 4.78

CC(C)N=c1cc2n(-c3ccc(Cl)cc3)c3ccccc3nc-2cc1Nc1ccc(OC(F)(F)F)cc1 [7i]
pEC50 (SARS-CoV-2 [2]): 5.00

CC(C)N=c1cc2n(-c3ccc(Cl)cc3)c3ccccc3nc-2cc1NCc1ccc(Cl)cc1 [7k]
pEC50 (SARS-CoV-2 [2]): 4.91

CC(C)N=c1cc2n(-c3ccc(F)cc3)c3ccccc3nc-2cc1Nc1ccc(Cl)cc1 [15a]
pEC50 (SARS-CoV-2 [2]): 4.53

CC(C)N=c1cc2n(-c3ccc(F)cc3)c3ccccc3nc-2cc1Nc1ccc(F)cc1 [15b]
pEC50 (SARS-CoV-2 [2]): 4.09

COc1ccc(-n2c3cc(=NC(C)C)c(Nc4cccc(F)c4)cc-3nc3ccccc32)cc1 [15f]
pEC50 (SARS-CoV-2 [2]): 4.84

COc1ccc(-n2c3cc(=NC(C)C)c(Nc4ccc(F)cc4)cc-3nc3ccccc32)cc1 [15g]
pEC50 (SARS-CoV-2 [2]): 5.00

COc1ccc(-n2c3cc(=NC4CC4)c(Nc4ccc(F)cc4)cc-3nc3ccccc32)cc1 [15h]
pEC50 (SARS-CoV-2 [2]): 4.48

C=C[C@@]1(C)CC(=O)[C@]2(O)[C@@]3(C)[C@@H](O)CCC(C)(C)[C@@H]3[C@H](OC(=O)CCN(C)C)[C@H](OC(C)=O)[C@@]2(C)O1.Cl [NKH477]
extent of inhibition in CPE assays (SARS-CoV-2 [1]; Vero E6 cells): partial inhibitors

CCC(CC)COC(=O)[C@H](C)N[P@](=O)(OC[C@H]1O[C@@](C#N)(c2ccc3c(N)ncnn23)[C@H](O)[C@@H]1O)Oc1ccccc1 [Remdesivir]
extent of inhibition in CPE assays (SARS-CoV-2 [1]): full inhibitors

CCOC(=O)c1c(CSc2ccccc2)n(C)c2cc(Br)c(O)c(CN(C)C)c12 [compound 1, Arbidol]
extent of inhibition in CPE assays (SARS-CoV-2 [1]): partial inhibitor | pEC50 (SARS-CoV-2 [1]; [5]): 5.25 | pEC50 (SARS-CoV-2 [2]): 5.00

CC(C)/N=c1\cc2n(-c3ccc(Cl)cc3)c3ccccc3nc-2cc1Nc1ccc(Cl)cc1 [compound 2, Clofazimine]
pEC50 (hCoV-OC43): 6.46 | pEC50 (SARS-CoV-2 [1]; read-out: consensus EC50 antiviral activity): 6.51 | pEC50 (SARS-CoV-2 Spike): 5.59 | Nsp5 Main protease (Mpro) activity [3]: zero activity | extent of inhibition in infection assays (SARS-CoV-2 [4]; Vero E6, Huh7, and Caco-2 cells): full inhibitor | pEC50 (SARS-CoV-2 [4]; same study as hCoV-OC43, read-out: EC50 SARS-CoV-2 infections): 8.00

CN(C)CCOc1ccc(/C(=C(/CCCl)c2ccccc2)c2ccccc2)cc1 [compound 3, Toremifene]
pEC50 (SARS-CoV-2 pseudovirus): 5.72 | pEC50 (SARS-CoV-2 [4]; read-out: EC50 live SARS-CoV-2 infections): 5.45

CC(CN(C)C)CN1c2ccccc2CCc2ccccc21 (stereo not drawn) [trimipramine]
extent of inhibition in CPE assays (SARS-CoV-2 [1]; Vero E6 cells): partial inhibitors
